In PMC4948780, “PARP Inhibitors in Clinical Use Induce Genomic Instability in Normal Human Cells” (PLoS ONE, 2016):

Columns and labels:
[1] = test system: EBV-BL; test: Chromosomal aberrations on metaphase spreads (Giemsa); type: cell-based, human; settings: 1 μM, 24 hrs, 100 metaphases
Method: (§1) To prepare metaphase spreads, exponentially growing cells were treated with 0.1–0.3 μg/ml of colcemid for 1–6 hr. Cells were collected and incubated in hypotonic solution (0.56% KCl), fixed in methanol: acetic acid (3:1), spotted to slides and air-dried. To measure chromosomal aberrations, the slides were stained with 2% Giemsa/Sorensen’s buffer. To visualize SCEs, the doubling time for each cell type was determined. Cells were incubated with 10 μM BrdU for two cell cycles. After metaphase spreads were prepared, the slides were treated with 0.5 μg/ml Hoechst 33258. The slides were exposed to black light for 20–60 min, incubated at 60°C for 2 hr, and stained in 4–10% Giemsa/Sorensen’s buffer.

[2] = test system: MCF-10A; test: as above; type: cell-based, human; settings: 1 μM, 24 hrs
Method: as §1

[3] = test system: Brca1^-/- 236.44 mES cells; test: Clonogenic survival assay, mES cells; type: cell-based, mouse
Description: (§2) Human mammary epithelial cell lines used included non-tumorigenic diploid MCF-10A, HMEC-hTERT and tumorigenic MDA-MB-468 (basal) and MCF-7 (luminal). […] Blood samples were obtained from normal donor participants. The participants provided written informed consent to IRB protocol #95–054 approved by the Institutional Review Board at MSKCC. The original signed consent is then sent to the research participant’s medical record and a copy of the consent is given to the participant. The EBV-transformed B-lymphocyte cell line (EBV-BL) was generated by transformation of peripheral blood mononuclear cells (PBMC) with the B95.8 strain of EBV, as previously described. Primary T cells were generated from PBMC from two normal donors by non-specific activation with phytohemagglutinin and cultured in RPMI1640 and human serum AB for 4–14 days before use. E14 mES cell line was provided by M. Hooper, Brca1^-/- 236.44 mES cell line was provided by B. H. Koller, Brca2^lex1/lex2 mES cell line was provided by P. Hasty and Lexicon Genetics. E14 wild-type, Brca1^-/- 236.44, and Brca2^lex1/lex2 mES cell lines were cultured in standard ES media. Brca1^-/- 236.44 cells express a BRCA1 peptide deleted for sequences encoded by exon 11 [52], while Brca2^lex1/lex2 cells express a BRCA2 peptide deleted for the terminal exon 27 [53]. […] Veliparib and BSI-201 were purchased from Chemie Tek. The compounds were dissolved in DMSO and PBS. For clonogenic survival assays, MCF-10A (1000 cells), HMEC-hTERT (1000 cells), MDA-MB-468 (1500 cells) and mouse ES cell (2000 cells) were seeded, vehicle control or inhibitors were added at the indicated concentration 24 hours after seeding and changed every three days for continuous treatment. At 7–14 days, colonies were fixed with methanol and stained with Giemsa. For EBV-BL (6 × 10^6) and primary T cells (3.6 × 10^6) were continuously exposed to the indicated concentration of drug for 10 days at 0.6 × 10^6 cells/ml. Viable cells were scored by trypan blue exclusion.

[4] = test system: Brca2^lex1/lex2 mES cells; test: Clonogenic survival assay, mES cells; type: cell-based, mouse
Description: as §2

[5] = Mus musculus, read-out: IC50 (clonogenic survival)

For `O=C(c1cc(Cc2n[nH]c(=O)c3ccccc23)ccc1F)N1CCN(C(=O)C2CC2)CC1` [olaparib], the chromatid-type radial chromosome [1] was 1, the chromatid-type telomere association [1] was 0 and the chromosome-type dicentric [1] was 0. For the same molecule, the chromosome-type gap/break [1] was 1, the total chromatid-type aberrations ([1]; radial and telomere association counted as two) was 44 and the “total chromatid-type aberrations / metaphase (mean ± SEM)” value [2] was 0.22 ± 0.05. For the same molecule, the chromatid-type radial chromosome ([2]; 100 metaphases) was 0, the chromatid-type telomere association ([2]; 100 metaphases) was 1 and the chromosome-type dicentric ([2]; 100 metaphases) was 0. For the same molecule, the chromosome-type gap/break ([2]; 100 metaphases) was 3, the total chromatid-type aberrations ([2]; 100 metaphases, radial and telomere association counted as two) was 22 and the IC50 [3, 5] was 2.5 nM. For the same molecule, the “enhanced sensitivity of cells lacking wild-type BRCA1 vs wild-type cells” value ([3]; ratio of IC50, wild-type / Brca1^-/- 236.44) was 240 fold, the IC50 [4, 5] was 13 nM and the “enhanced sensitivity of cells lacking wild-type BRCA2 vs wild-type cells” value ([4]; ratio of IC50, wild-type / Brca2^lex1/lex2) was 46 fold.
